Where “and” joins values, the source holds several entries; their conditions need not be identical. Identical values can stand only once. Marks after values point to notes of the source that are not given here.

Test [1] relates to rats with intracerebral hemorrhage. Description: Neurological deficit (C. P. McGrow stroke-index scale) in rats with intracerebral hemorrhage. It counts as in vivo. The following applies: n = 15. On the procedure: Neuroprotective effect of 3,2′-spiro-pyrrolo-2-oxindole derivative (SI-86 compound) was studied on IUD model of moderate severity modeled under propofol anesthesia (60 mg/kg intraperitoneally (ip)) by autoblood administration into the brain internal capsule (stereotactic coordinates of the projection: H=7.0 mm, L=3.0 mm, A=1.5 mm from bregma) ([…]) (Method for reproduction of intracerebral hemorrhage in rats/O. K. Yarosh, S. V. Kyrychenko, S. P. Halimonchyk [et al.]//Circulation and hemostasis.-2005.-No. 1.-P. 77-81). The chosen model allows to reproduce clinical pattern of […] and is adequate for clinical study of potential neuroprotective agents.
As comparators the following drugs were used: mexydol (“Mexydol” UC Pharmasoft, Russia), 100 mg/kg; citicoline (“Somazina” Ferrer International, SA, Spain), 250 mg/kg; aktovegin (“Aktovegin”, Nycomed, Austria), 16 mg/kg pyracetam (“Pyracetam” Darnitsa, Ukraine), 400 mg/kg. According to the latest clinical guidelines regarding the treatment of patients with CVA approved by the Ministry of Health of Ukraine (Order No. 602 dated 3 Aug. 2012), all these drugs are allowed to be included into schemes for intensive patients therapy with CVA as neuroprotective agents. They were used at recommended doses for preclinical studies (McGrow C. P. Experimental Cerebral Infarction Effects of Pentobarbital in Mongolian Gerbils/C. P. McGrow//Arch. Neurol.-1977.-Vol. 34, No. 6.-P. 334-336). Experimental therapy of acute cerebral ischemia with SI-86 compound and comparator started 1 hour after IUD once a day for 21 days. The SI-86 derivative was investigated in conventionally effective dose of 10 mg/kg […] (iv)-dose that according to the results of our previous study provides maximum antihypoxic activity of SI-86 compound. Reference drugs were injected intraperitoneally (ip). Rats of control pathology group were injected by autoblood and as therapy 0.9% NaCI solution was administered calculated for 2 ml/kg […].
Neurological deficit in animals with acute CVA respectively in acute (4th day) and recovery (21 st day) periods was measured on C. P. McGrow stroke-index scale. The state severity was determined by amount of relevant points: to 3 points-mild, 3 to 7 points-average, above 7 points-severe degree. Pareses, paralyses of limbs, tremors, circus movement, ptoses, lateral positions, ability of rats to be maintained at the core of 15 cm diameter, rotating at the rate of 3 rpm were noted. The animals were tested daily by displaying the amount of points:
one-sided semi-ptosis—0.5 points; one-sided ptosis—1 point; tremor—0.5 points; circus movements—0.5 points; pareses of limbs (for each limb)—1 point; paralyses of limbs (for each limb)—2 points; lateral position—3 points; disability to maintain on rotating rod during 4 minutes—3 points.

Test [2] relates to 11β-corticosterone. The experiment in a line: 11β-corticosterone level in venous blood of rats with bilateral carotid occlusion (ELISA). It counts as in vivo, Wistar rats. The note with it: for dynamics in percents in relation to control pathology group / dynamics in percents in relation to the group of pseudo-operated animals / 11β-corticosterone level in venous blood: BCO. As for the experimental part: The neuroprotective effect of 3,2′-spiro-pyrrolo-2-oxindole derivative (SI-86 compound) was studied in Wistar rats on a model of cerebrovascular accident (CVA) of ischemic type in archencephalic pool forming bilateral carotid occlusion (BCO) by carotid artery ligation. The ligations for common carotid arteries was imposed under propofol anesthesia at a dose of 60 mg/kg intraperitoneally (ip), using surgical access to the front of the neck cutting through its white line. The chosen model allows to reproduce the clinical pattern of ischemic stroke and is adequate for clinical study of potential neuroprotective substances (Drug discovery and Evaluation: pharmacological assays/H. Gerhard Vogel (ed.).-2nd ed. 1453p.).
The derivative of 3,2′-spiro-pyrrolo-2-oxindole was investigated in conventionally effective dose of 10 mg/kg […] (iv)—dose which is provided maximum antihypoxic activity of SI-86 compound by the results of our previous study. The reference drugs were injected intraperitoneally (ip). BCO was applied to the rats of control pathology and 0.9% NaCI solution was administered as therapy calculated for 2 ml/kg ip.
(§1) Pseudo-operated rats were exposed to all interventions (anesthesia, skin incision, dissection of vessels) except arteries ligation that leveled traumatic impact of experimental conditions.
(§2) To determine a corticosterone level (species-specific cortisol analogue in rats, which is also a substrate for 11β-HSD1) in the corresponding period (4 th and 21 st CVA day) in rat by sagittal sinus puncture, blood was sampled (0.2-0.4 ml). The cortisol level was measured by ELISA using a CORTICOSTERONEE KIT set (Germany) on the instrument of the company “Hipson” (Czech Republic).
A general note: In an ELISA, binding on a coated surface is turned into a signal by an enzyme label.

In test [3] the test system is 11β-corticosterone. The experiment in a line: 11β-corticosterone level in venous blood of pseudo-operated rats (ELISA). It is filed as in vivo, Wistar rats. The note with it: pseudo-operated animals + SI-86 10 mg/kg iv. On the procedure:
as §1, §2
To establish the effect of course administration of SI-86 compound on steroid synthesis in animals without cerebral ischemia the dynamics of its level in pseudo-operated rats in the same period was additionally determined.

In test [4] the test system is neuron-specific enolase (NSE). The experiment in a line: Neuron-specific enolase (NSE) activity in rats with intracerebral hemorrhage (ELISA). The following applies: for NSE activity (dynamics of neurodestructive changes): acute cerebral hemorrhage, n = 7; for enzyme activity decreased in relation to the control pathology group / efficiency in reducing NSE better than citocoline: hemorrhage. It is filed as in vivo. As for the experimental part:
The derivative of 3,2′-spiro-pyrrolo-2-oxindole was investigated in conventionally effective dose of 10 mg/kg […] (iv)—dose that according to the results of our previous studies provided maximum antihypoxic activity of SI-86 compound. Reference drugs were injected intraperitoneally (ip). […] Autoblood was injected to rats with control pathology and 0.9% NaCI solution was administered as therapy calculated for 2 ml/kg ip.
Psevdooperated rats were exposed to all interventions (anesthesia, craniotomy) with the exception of autoblood administration that leveled traumatic impact of experimental conditions.
To determine neuron-specific enolase, the specific marker of cerebral ischemia,—for corresponding period (4 th and 21 st day of CVA) in rats, blood was sampled by sagittal sinus puncture (0.2-0.4 ml). NSE activity was measured by ELISA using a set NSE EIA KIT (DAI, USA) on the instrument of the company “Hipson” (Czech Republic).

The mark [5] stands for this setting: day 4, SI-86 10 mg/kg iv, citocoline 250 mg/kg ip.

With `CSCC[C@@H]1N[C@@]2(C(=O)Nc3ccccc32)[C@@H]2C(=O)N(c3ccc(C)cc3)C(=O)[C@H]12` [SI-86, 5′-(4-Methylphenyl)-3′-[2-(methylthio)ethyl]-3a′,6a′-dihydro-2′H-spiro[indole-3,1′-pyrrolo[3,4-c]pyrrol]-2,4′,6′(1H,3′H,5′H)-trione], the “neurological deficit, average point under C. P. McGrow scale” value in test [1] (day 4, SI-86 10 mg/kg iv, mexydol 100, citocoline 250, actovegin 16, pyracetam 400 mg/kg ip) was 4.1 points and 4.10 ± 0.32°*^#•$ points; in test [1] (day 21, same doses) it was 3.1 points and 3.10 ± 0.33°*^#&$ points. In addition, the “dynamics in percents in relation to control pathology group” value in test [2] (day 4) is “[−60.2%]”; in test [2] (day 21), “[−57.1%]”. Moreover, the “dynamics in percents in relation to the group of pseudo-operated animals” value in test [2] (day 4) is reported as “(+54.8%)”; in test [2] (day 21) it was “(+55.2%)”; in test [3] (day 4), “(−31.9%)”; in test [3] (day 21), “(−10.2%)”. In addition, the “11β-corticosterone level in venous blood” value in test [2] (setting [5]) came out at 186.12 ± 1.43°*^# ng/ml; in test [2] (day 21, same doses) it was 144.67 ± 3.43°*^#• ng/ml; in test [3] (day 4) it was 81.95 ± 0.61 ng/mL; in test [3] (day 21), 83.02 ± 4.25 ng/mL. Further, the “ability to reduce corticosterone content, better than citocoline” value is 1.46 times in test [2] (CVA acute period) and 1.62 times in test [2] (recovery period). In addition, the “corticosterone concentration in sagittal sinus blood decreased in relation to the control pathology group” value in test [2] (after 96 hours) turned out to be 60.2%; in test [2] (after 21 days), 57.1%. Also, the “NSE activity (dynamics of neurodestructive changes)” value in test [4] (setting [5]) is listed as 1.065 ± 0.019*^#•; in test [4] (day 21, same doses), 0.260 ± 0.014*^#•. The figures for the “enzyme activity decreased in relation to the control pathology group” value in test [4] (96 hours) and in test [4] (21 days) were 2.6 times and 3.6 times, respectively. The “efficiency in reducing NSE better than citocoline” value in test [4] (acute period) stood at 17.6%; in test [4] (recovery period) it was 15.9%.

The record behind these values is patent US20160297828A1, “SPIROCYCLIC COMPOUNDS CONTAINING SPIRO[INDOLYL-3,1'-PYRROLO[3,4-C]PYRROLE] CORE AND SULPHUR-CONTAINING AMINO ACID RESIDUES” (priority 2013, published 2016).
